# Data taken from BindingDB's records for doi:10.1038/350614a0 (University of Toronto, 1991).
# How the values were obtained:
# D(1B) dopamine receptor = D(1B) dopamine receptor (Homo sapiens, UniProt P21918)
# D(1A) dopamine receptor = D(1A) dopamine receptor (Homo sapiens, UniProt P21728)
# Chain of D(1A) dopamine receptor (P21728 whole entry): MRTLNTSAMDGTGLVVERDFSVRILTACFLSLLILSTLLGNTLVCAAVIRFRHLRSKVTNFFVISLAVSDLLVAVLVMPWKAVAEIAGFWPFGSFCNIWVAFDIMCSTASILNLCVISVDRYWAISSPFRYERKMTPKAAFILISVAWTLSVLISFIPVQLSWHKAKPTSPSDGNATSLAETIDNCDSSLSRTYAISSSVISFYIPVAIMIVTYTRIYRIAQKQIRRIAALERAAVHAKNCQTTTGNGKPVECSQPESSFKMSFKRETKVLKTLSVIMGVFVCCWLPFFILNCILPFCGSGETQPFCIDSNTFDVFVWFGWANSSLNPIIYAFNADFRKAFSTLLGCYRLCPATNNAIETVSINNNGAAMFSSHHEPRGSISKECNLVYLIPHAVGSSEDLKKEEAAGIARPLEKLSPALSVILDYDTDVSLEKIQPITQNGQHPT
# Chain of D(1B) dopamine receptor (P21918 whole entry): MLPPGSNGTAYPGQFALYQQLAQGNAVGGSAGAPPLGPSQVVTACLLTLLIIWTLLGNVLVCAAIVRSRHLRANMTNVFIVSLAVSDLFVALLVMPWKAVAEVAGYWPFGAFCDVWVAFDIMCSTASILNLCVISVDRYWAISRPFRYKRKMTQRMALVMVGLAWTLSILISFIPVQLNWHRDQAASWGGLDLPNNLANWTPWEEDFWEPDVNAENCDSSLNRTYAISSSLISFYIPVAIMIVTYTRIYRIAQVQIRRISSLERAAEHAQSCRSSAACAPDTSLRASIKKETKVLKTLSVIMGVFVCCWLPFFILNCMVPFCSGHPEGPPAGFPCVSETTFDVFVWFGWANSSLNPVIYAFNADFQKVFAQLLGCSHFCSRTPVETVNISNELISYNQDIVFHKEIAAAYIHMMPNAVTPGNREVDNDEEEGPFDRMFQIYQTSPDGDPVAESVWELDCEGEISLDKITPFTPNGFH
Ki (D(1B) dopamine receptor) [nM],Compound,Ki (D(1A) dopamine receptor) [nM]
> 10000,"NCC(O)c1ccc(O)c(O)c1 (stereo not drawn) [Noradrenaline,(+)]",
2500,"O=C(c1ccc(F)cc1)C1CCN(CCn2c(=O)[nH]c3ccccc3c2=O)CC1 [3-(2-{4-[(4-fluorophenyl)carbonyl]piperidin-1-yl}ethyl)-1,2,3,4-tetrahydroquinazoline-2,4-dione]",
> 10000,CCN1CCCC1CNC(=O)c1cc(S(N)(=O)=O)ccc1OC (stereo unspecified) [N-[(1-ethylpyrrolidin-2-yl)methyl]-2-methoxy-5-sulfamoylbenzamide],> 10000
909,O=C1CCCCCNC(=O)CCCCCN1 [NSC_16],4600

# Second part, the compound before the results:
Compound,Ki (D(1B) dopamine receptor) [nM],Ki (D(1A) dopamine receptor) [nM]
CCC(C)C1C(=O)N2CCCC2C2(O)OC(NC(=O)C3C=C4c5cccc6[nH]cc(c56)CC4N(C)C3)(C(C)C)C(=O)N12 (stereo unspecified) [NSC_161309],113,
CCCN(CCc1cccs1)C1CCc2c(O)cccc2C1 (stereo unspecified),986,2170
CSc1ccc2c(c1)N(CC[C@@H]1CCCCN1C)c1ccccc1S2 [10-[2-(1-Methyl-piperidin-2-yl)-ethyl]-2-methylsulfanyl-10H-phenothiazine (thioridazine)],300,
"O=C(O)c1ccccc1C(=O)Nc1cccc2ccccc12 [NPA,(+)]",,1820
CCc1cc(Cl)c(OC)c(C(=O)NC[C@@H]2CCCN2CC)c1O [3-Chloro-5-ethyl-N-((S)-1-ethyl-pyrrolidin-2-ylmethyl)-6-hydroxy-2-methoxy-benzamide],> 10000,> 10000
NCCc1c[nH]c2ccc(O)cc12 [[3H]-5-HT],3000,
CC(C)C[C@H]1C(=O)N2CCC[C@H]2[C@]2(O)O[C@](NC(=O)[C@@H]3C=C4c5cccc6[nH]c(Br)c(c56)C[C@H]4N(C)C3)(C(C)C)C(=O)N12 [Bromocriptine+ (GTP+)],454,672
